Source: patent US11198731B2 (Exelixis, Inc., priority 2017, dated 2021)

What was measured:
[1] = tested on: advanced RCC after prior VEGFR-TKI; details: cited from earlier work
[2] = tested on: subjects with medullary thyroid cancer (MTC); assay: Placebo-controlled study of cabozantinib effect on QTc interval; type: in vivo, human
Excerpt: A concentration-QTc relationship could not be definitively established. Changes in cardiac wave form morphology or new rhythms were not observed.

[3] = Effect of proton pump inhibitor esomeprazole on cabozantinib plasma PK; type: in vivo, human; details: healthy volunteers
[4] = tested on: advanced CRPC with bone metastases; details: cited from earlier work
[5] = Nonclinical GLP-compliant toxicology studies; type: in vivo
Excerpt: The development of any new or progressive, unexplained neurological symptoms should be assessed for underlying causes.

CYP3A4 [6] = target: T1, CYP3A4 (Homo sapiens, UniProt P08684); assay: Clinical pharmacology study XL184-007 with the strong CYP3A4 inhibitor ketoconazole; type: in vivo; design: endogenous in cells; host or cells: healthy volunteers, in vivo; details: concurrent ketoconazole; single dose of cabozantinib in healthy volunteers
Target sequence in this assay (P08684 whole entry): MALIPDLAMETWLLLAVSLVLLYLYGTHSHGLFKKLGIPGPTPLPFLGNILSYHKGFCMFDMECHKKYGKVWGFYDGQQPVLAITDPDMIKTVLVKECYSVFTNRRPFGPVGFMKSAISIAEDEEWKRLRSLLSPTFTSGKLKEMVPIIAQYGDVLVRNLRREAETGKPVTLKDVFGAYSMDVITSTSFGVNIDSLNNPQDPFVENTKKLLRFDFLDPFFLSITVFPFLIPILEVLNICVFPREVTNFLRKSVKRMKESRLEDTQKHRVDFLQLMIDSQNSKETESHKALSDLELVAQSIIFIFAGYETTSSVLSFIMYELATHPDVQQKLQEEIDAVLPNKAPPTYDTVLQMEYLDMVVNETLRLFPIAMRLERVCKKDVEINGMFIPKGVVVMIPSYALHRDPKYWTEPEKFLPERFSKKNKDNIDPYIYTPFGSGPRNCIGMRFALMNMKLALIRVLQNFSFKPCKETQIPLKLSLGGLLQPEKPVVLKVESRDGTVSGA

cytochrome P450 enzymes = assay: In vitro induction of cytochrome P450 enzymes; type: in vitro ADME
CYP3A4 [7] = target: T1, CYP3A4; assay: In vitro CYP substrate studies; type: in vitro ADME
Target sequence in this assay (P08684 whole entry, species assumed): as the sequence (P08684 whole entry) above

CYP1A1 = assay: In vitro induction of cytochrome P450 enzymes; type: in vitro ADME; details: high cabozantinib concentrations (30 μM)
[8] = Food effect on cabozantinib exposure; details: in vivo
MC38-CEA tumor = details: mouse, in vivo; cited from earlier work
P-glycoprotein = P-glycoprotein (Homo sapiens, UniProt P08183); assay: In vitro P-glycoprotein substrate and inhibition data; type: in vitro ADME
P-glycoprotein, sequence (P08183 whole entry): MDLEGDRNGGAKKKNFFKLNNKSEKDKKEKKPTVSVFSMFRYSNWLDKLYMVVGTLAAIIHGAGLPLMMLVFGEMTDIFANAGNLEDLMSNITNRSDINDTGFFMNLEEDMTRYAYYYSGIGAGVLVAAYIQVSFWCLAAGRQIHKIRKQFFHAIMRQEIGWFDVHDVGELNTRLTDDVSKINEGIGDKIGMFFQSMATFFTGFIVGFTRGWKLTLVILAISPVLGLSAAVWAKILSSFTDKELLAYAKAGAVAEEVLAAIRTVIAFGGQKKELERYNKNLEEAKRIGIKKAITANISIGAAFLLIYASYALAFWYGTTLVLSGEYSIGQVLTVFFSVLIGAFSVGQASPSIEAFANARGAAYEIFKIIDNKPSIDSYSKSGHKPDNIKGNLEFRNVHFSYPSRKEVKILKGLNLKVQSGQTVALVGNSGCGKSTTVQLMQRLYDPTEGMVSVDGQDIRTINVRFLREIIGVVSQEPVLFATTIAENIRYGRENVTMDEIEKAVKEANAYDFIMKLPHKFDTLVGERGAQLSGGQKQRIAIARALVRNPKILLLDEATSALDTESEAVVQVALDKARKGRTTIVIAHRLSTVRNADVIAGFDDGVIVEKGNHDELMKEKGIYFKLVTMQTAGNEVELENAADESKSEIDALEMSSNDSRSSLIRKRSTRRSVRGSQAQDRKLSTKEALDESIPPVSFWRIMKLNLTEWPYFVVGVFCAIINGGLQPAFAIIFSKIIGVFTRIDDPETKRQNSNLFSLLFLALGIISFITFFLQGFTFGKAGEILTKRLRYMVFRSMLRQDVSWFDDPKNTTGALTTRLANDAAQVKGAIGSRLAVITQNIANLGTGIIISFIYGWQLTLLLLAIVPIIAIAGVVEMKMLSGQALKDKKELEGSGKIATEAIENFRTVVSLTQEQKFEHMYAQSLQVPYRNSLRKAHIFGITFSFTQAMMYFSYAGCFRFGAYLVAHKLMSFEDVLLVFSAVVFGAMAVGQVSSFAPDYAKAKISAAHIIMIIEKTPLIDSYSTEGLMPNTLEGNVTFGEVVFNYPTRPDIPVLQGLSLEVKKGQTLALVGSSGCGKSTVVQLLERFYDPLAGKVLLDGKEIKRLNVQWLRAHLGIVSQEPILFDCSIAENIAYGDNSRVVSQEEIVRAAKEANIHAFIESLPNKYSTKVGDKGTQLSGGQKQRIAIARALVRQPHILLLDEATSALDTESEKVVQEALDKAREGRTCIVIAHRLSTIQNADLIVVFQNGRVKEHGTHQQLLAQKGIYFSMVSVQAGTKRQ

[9] = tested on: advanced RET-rearranged NSCLC; details: cited from earlier work
[10] = tested on: previously-untreated advanced RCC of intermediate- or poor-risk; details: cited from earlier work
CYP2C9 = CYP2C9 (Homo sapiens, UniProt P11712); assay: In vitro CYP substrate studies; type: in vitro ADME
CYP2C9, sequence (P11712 whole entry, species assumed): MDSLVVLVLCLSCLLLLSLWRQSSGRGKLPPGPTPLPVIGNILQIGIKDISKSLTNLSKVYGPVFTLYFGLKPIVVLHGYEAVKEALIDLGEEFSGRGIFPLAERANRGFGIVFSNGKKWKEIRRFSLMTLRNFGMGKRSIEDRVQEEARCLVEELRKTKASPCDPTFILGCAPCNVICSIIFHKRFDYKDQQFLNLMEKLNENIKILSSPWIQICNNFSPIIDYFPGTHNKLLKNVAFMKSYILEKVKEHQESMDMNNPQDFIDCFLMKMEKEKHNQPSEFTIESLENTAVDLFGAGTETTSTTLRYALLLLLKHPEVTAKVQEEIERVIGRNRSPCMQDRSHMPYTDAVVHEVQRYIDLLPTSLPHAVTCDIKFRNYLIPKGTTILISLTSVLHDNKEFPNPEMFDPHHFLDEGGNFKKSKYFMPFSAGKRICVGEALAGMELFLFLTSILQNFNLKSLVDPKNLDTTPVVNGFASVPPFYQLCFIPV

invasive prostate cancer = details: through a neutrophil mediated anticancer innate immune response; cited from earlier work
[11] = tested on: relapsed or refractory metastatic UC; details: cited from earlier work
CYP3A4 [12] = target: T1, CYP3A4; assay: Clinical pharmacology study XL184-006 with the strong CYP3A4 inducer rifampin; type: in vivo; design: endogenous in cells; host or cells: healthy volunteers, in vivo; details: concurrent rifampin; single dose of cabozantinib in healthy volunteers
Target sequence in this assay (P08684 whole entry): as the sequence (P08684 whole entry) above

advanced NSCLC = details: cited from earlier work
[13] = tested on: NSCLC without EGFR genetic alterations; details: cited from earlier work
[14] = tested on: murine colon carcinoma cell line (MC38-CEA); details: in vitro; cited from earlier work
[15] = tested on: CYP2D6, CYP2C8, CYP2C19, CYP2B6, or CYP1A2; details: human
human plasma proteins = assay: Plasma protein binding; type: in vitro ADME
[16] = tested on: metastatic triple-negative breast cancer; details: in vivo; cited from earlier work
[17] = Time to steady state exposure of cabozantinib; type: in vivo, human; details: following first dose
Excerpt: Events that generally have an early onset include hypocalcemia, hypokalemia, thrombocytopenia, hypertension, PPE, abdominal pain, mucosal inflammation, constipation, diarrhea, and vomiting. Adverse events should be managed with supportive car at the earliest signs of toxicity. Dose reductions and treatment interruptions should be considered. Dose reductions are recommended for events that, if persistent, could become serious or intolerable (Table 6-3).

[18] = Cohort 1, 42 evaluable subjects

## COc1cc2nccc(Oc3ccc(NC(=O)C4(C(=O)Nc5ccc(F)cc5)CC4)cc3)c2cc1OC [cabozantinib, N-(4-{[6,7-bis(methyloxy)quinolin-4-yl]oxy}phenyl)-N′-(4-fluorophenyl)cyclopropane-1,1-dicarboxamide]
[1]; % of subjects
  Dose reductions from 60 mg to 40 mg: 60%
  Further dose reductions from 40 mg to 20 mg: 20%
[1]; incidence in each arm
  Treatment discontinuations due to AEs: 10%
[2]; cabozantinib 140 mg qd
  Subjects with a QTcF >500 ms: No cabozantinib-treated subjects
[2]; cabozantinib 140 mg qd orally, 4 weeks after initiating treatment
  Mean increase in QTcF: 10 to 15 ms
[2]; larger safety database (approximately 5000 subjects exposed)
  Events of torsades de pointes: no events of torsades de pointes
[3]
  Effect of esomeprazole on cabozantinib plasma PK: no clinically-relevant effect
[4]; at Week 12
  Proportion of subjects with a bone scan response (BSR) per IRC: 42%
[4]; exploratory endpoint
  Median PFS per investigator: 5.6 months
[4]; in vivo
  Median duration of BSR: 5.8 months
  Median duration of OS (Kaplan-Meier): 11.0 months
[5]
  Risk of adverse neurological effects: minimal risk of adverse neurological effects
CYP3A4 [6]
  Increase in cabozantinib exposure (AUC values): 38%
Cytochrome P450 enzymes
  Induction of cytochrome P450 enzymes: unlikely to Induce
CYP3A4 [7]
  CYP3A4 substrate status: CYP3A4 substrate
CYP1A1
  Induction of CYP1A1: possible induction
[8]
  Increase of exposure levels by food: 57%
MC38-CEA tumor
  Peripheral CD8+ T-cell counts: increased
  Regulatory T-cells (Tregs) and myeloid-derived suppressor cells (MDSCs): decreased
  Treg suppressor activity: decreased
P-glycoprotein
  Inhibition of P-glycoprotein transport activity: potential to inhibit
  P-glycoprotein substrate status: unlikely to be a substrate
[9]; RET-rearranged NSCLC
  Overall response rate (ORR): 28%
[9]; in vivo
  Grade 3 treatment-related AE: decreased platelet count: 8%
  Grade 3 treatment-related AE: hypophosphataemia: 8%
  Grade 3 treatment-related AE: increased ALT: 8%
  Grade 3 treatment-related AE: increased AST: 8%
  Grade 3 treatment-related AE: lipase elevation: 15%
  Median OS: 9.9 months
  Median PFS: 5.5 months
  Treatment-related deaths: No treatment-related deaths
[10]; 16 subjects in each arm
  Discontinued study treatment due to an AE: 20%
[10]; % of subjects
  Adverse events of ≥Grade 3 regardless of causality: 68%
[10]; compared with sunitinib
  Reduction of the rate of disease progression or death: 34%
[10]; in vivo
  Median OS: 26.6 months
  Median PFS per IRC: 8.6 months
  Median PFS per investigator: 8.2 months
  ≥Grade 3 AE: PPE: 8%
  ≥Grade 3 AE: diarrhea: 10%
  ≥Grade 3 AE: fatigue: 6%
  ≥Grade 3 AE: hematological events: 2%
  ≥Grade 3 AE: hypertension: 28%
CYP2C9
  CYP2C9 substrate status: weak substrate
Invasive prostate cancer
  Effect on invasive prostate cancer: rapid elimination of invasive prostate cancer
[11]; [18]
  Number of PRs: 7
  Number of complete responses (CR): 1
  ORR: 19.1%
[11]; Cohort 1
  Median OS: 8.0 months
  Median PFS: 3.7 months
[11]; all cohorts (n=67)
  Cabozantinib-related Grade 4 AE: hypomagnesemia: 3%
  Cabozantinib-related Grade 4 AE: lipase increased: 1%
  Grade 3 AE related to cabozantinib: hypertension: 7%
  Grade 3 AE related to cabozantinib: hypophosphatemia: 6%
[11]; all cohorts (n=67), most frequent (5% incidence)
  Grade 3 AE related to cabozantinib: fatigue: 9%
[11]; in vivo
  Immunosuppressive Treg lymphocytes following treatment: reductions
CYP3A4 [12]
  Reduction in cabozantinib exposure (AUC values): approximately 77%
Advanced NSCLC; 60 subjects, single agent
  ORR: 10%
Advanced NSCLC; % of subjects
  Stable disease as best response: 48.3%
Advanced NSCLC; heavily pre-pretreated unselected NSCLC, early phase clinical trials
  Objective response rate (ORR): approximately 10%
Advanced NSCLC; in vivo
  Median PFS: 4.0 months
[13]; in vivo
  Estimated median OS: 9.2 months
  ORR: 11%
[13]; second or third line treatment
  PFS: 4.3 months
[13]; single-agent cabozantinib
  Grade 3 or 4 AE: diarrhea: 8%
  Grade 3 or 4 AE: fatigue: 15%
  Grade 3 or 4 AE: hypertension: 25%
  Grade 3 or 4 AE: oral mucositis: 10%
  Grade 3 or 4 AE: thromboembolic event: 8%
[14]
  Sensitivity of tumor cells to T-cell-mediated killing: greater sensitivity
  Tumor-cell expression of major histocompatibility complex (MHC) class 1 antigen: increased tumor-cell expression
[15]
  CYP2D6, CYP2C8, CYP2C19, CYP2B6, CYP1A2 substrate status: not a CYP2D6, CYP2C8, CYP2C19, CYP2B6, or CYP1A2 substrate
Human plasma proteins
  Bound to human plasma proteins: 99.7%
[16]
  CD14+ monocytes: persistent decrease
  Fraction of circulating CD3+ T lymphocytes: persistent increase
[17]
  Time to steady state exposure: approximately 2 weeks
